Experimental data: article PMC10227015, “From a drug repositioning to a structure-based drug design approach to tackle acute lymphoblastic leukemia” (Nature Communications, 2023)
Where two headings read alike, the source gives them in different places.

Assays:
FAK = target: T1, FAK (Homo sapiens, UniProt Q05397); test: KINOMEscan competition binding; settings: OR0642 1 µM; read-out: %Control
T1 construct: purchased Eurofins DiscoverX (KINOMEscan scanEDGE 97)
Protocol: (§1) Kinome profiling was provided by Eurofins DiscoverX Corporation. Determination of the % control activity for 97 kinases was obtained through an active site-directed competition binding assay that quantitatively measure interactions between compound and kinases. OR0642 was used at 1 μM.
(§2) Supplementary Table 3. KINOMEscan™ Profiling of OR0642. Competition binding assay to
(§3) quantitatively measure interactions between OR0642 (1 µM) and 97 human kinases and disease
(§4) relevant mutant variants.

IKK-beta = target: T2, IKK-beta (Homo sapiens, UniProt O14920); test: KINOMEscan competition binding; settings: OR0642 1 µM; read-out: %Control
T2 construct: purchased Eurofins DiscoverX (KINOMEscan scanEDGE 97)
Protocol: as §1, §2, §3, §4

MKNK2 = target: T3, MKNK2 (Homo sapiens, UniProt Q9HBH9); test: KINOMEscan competition binding; settings: OR0642 1 µM; read-out: %Control
T3 construct: purchased Eurofins DiscoverX (KINOMEscan scanEDGE 97)
Protocol: as §1, §2, §3, §4

ERBB4 = target: T4, ERBB4 (Homo sapiens, UniProt Q15303); test: KINOMEscan competition binding; settings: OR0642 1 µM; read-out: %Control
T4 construct: purchased Eurofins DiscoverX (KINOMEscan scanEDGE 97)
Protocol: as §1, §2, §3, §4

ERK1 = target: T5, ERK1 (Homo sapiens, UniProt P27361); test: KINOMEscan competition binding; settings: OR0642 1 µM; read-out: %Control
T5 construct: purchased Eurofins DiscoverX (KINOMEscan scanEDGE 97)
Protocol: as §1, §2, §3, §4

PIM1 = target: T6, PIM1 (Homo sapiens, UniProt P11309); test: KINOMEscan competition binding; settings: OR0642 1 µM; read-out: %Control
T6 construct: purchased Eurofins DiscoverX (KINOMEscan scanEDGE 97)
Protocol: as §1, §2, §3, §4

MEK2 = target: T7, MEK2 (Homo sapiens, UniProt P36507); test: KINOMEscan competition binding; settings: OR0642 1 µM; read-out: %Control
T7 construct: purchased Eurofins DiscoverX (KINOMEscan scanEDGE 97)
Protocol: as §1, §2, §3, §4

CSNK1G2 = target: T8, CSNK1G2 (Homo sapiens, UniProt P78368); test: KINOMEscan competition binding; settings: OR0642 1 µM; read-out: %Control
T8 construct: purchased Eurofins DiscoverX (KINOMEscan scanEDGE 97)
Protocol: as §1, §2, §3, §4

CSF1R = target: T9, CSF1R (Homo sapiens, UniProt P07333); test: KINOMEscan competition binding; settings: OR0642 1 µM; read-out: %Control
T9 construct: purchased Eurofins DiscoverX (KINOMEscan scanEDGE 97)
Protocol: as §1, §2, §3, §4

KIT = target: T10, KIT (Homo sapiens, UniProt P10721); test: KINOMEscan competition binding; settings: OR0642 1 µM; read-out: %Control
T10 construct: purchased Eurofins DiscoverX (KINOMEscan scanEDGE 97)
Protocol: as §1, §2, §3, §4

ERBB2 = target: T11, ERBB2 (Homo sapiens, UniProt P04626); test: KINOMEscan competition binding; settings: OR0642 1 µM; read-out: %Control
T11 construct: purchased Eurofins DiscoverX (KINOMEscan scanEDGE 97)
Protocol: as §1, §2, §3, §4

BRAF(V600E) = target: T12, BRAF(V600E) (Homo sapiens, UniProt P15056, V600E); test: KINOMEscan competition binding; settings: OR0642 1 µM; read-out: %Control
T12 construct: purchased Eurofins DiscoverX (KINOMEscan scanEDGE 97)
Protocol: as §1, §2, §3, §4

CDK11 = target: T13, CDK11 (Homo sapiens, UniProt Q9BWU1); test: KINOMEscan competition binding; settings: OR0642 1 µM; read-out: %Control
T13 construct: purchased Eurofins DiscoverX (KINOMEscan scanEDGE 97)
Protocol: as §1, §2, §3, §4

ADCK3 = target: T14, ADCK3 (Homo sapiens, UniProt Q8NI60); test: KINOMEscan competition binding; settings: OR0642 1 µM; read-out: %Control
T14 construct: purchased Eurofins DiscoverX (KINOMEscan scanEDGE 97)
Protocol: as §1, §2, §3, §4

PDPK1 = target: T15, PDPK1 (Homo sapiens, UniProt O15530); test: KINOMEscan competition binding; settings: OR0642 1 µM; read-out: %Control
T15 construct: purchased Eurofins DiscoverX (KINOMEscan scanEDGE 97)
Protocol: as §1, §2, §3, §4

PIK3CG = target: T16, PIK3CG (Homo sapiens, UniProt P48736); test: KINOMEscan competition binding; settings: OR0642 1 µM; read-out: %Control
T16 construct: purchased Eurofins DiscoverX (KINOMEscan scanEDGE 97)
Protocol: as §1, §2, §3, §4

CSNK1D = target: T17, CSNK1D (Homo sapiens, UniProt P48730); test: KINOMEscan competition binding; settings: OR0642 1 µM; read-out: %Control
T17 construct: purchased Eurofins DiscoverX (KINOMEscan scanEDGE 97)
Protocol: as §1, §2, §3, §4

JNK3 = target: T18, JNK3 (Homo sapiens, UniProt P53779); test: KINOMEscan competition binding; settings: OR0642 1 µM; read-out: %Control
T18 construct: purchased Eurofins DiscoverX (KINOMEscan scanEDGE 97)
Protocol: as §1, §2, §3, §4

ALK = target: T19, ALK (Homo sapiens, UniProt Q9UM73); test: KINOMEscan competition binding; settings: OR0642 1 µM; read-out: %Control
T19 construct: purchased Eurofins DiscoverX (KINOMEscan scanEDGE 97)
Protocol: as §1, §2, §3, §4

EGFR(L858R) = target: T20, EGFR(L858R) (Homo sapiens, UniProt P00533, L858R); test: KINOMEscan competition binding; settings: OR0642 1 µM; read-out: %Control
T20 construct: purchased Eurofins DiscoverX (KINOMEscan scanEDGE 97)
Protocol: as §1, §2, §3, §4

CDK7 = target: T21, CDK7 (Homo sapiens, UniProt P50613); test: KINOMEscan competition binding; settings: OR0642 1 µM; read-out: %Control
T21 construct: purchased Eurofins DiscoverX (KINOMEscan scanEDGE 97)
Protocol: as §1, §2, §3, §4

AKT1 = target: T22, AKT1 (Homo sapiens, UniProt P31749); test: KINOMEscan competition binding; settings: OR0642 1 µM; read-out: %Control
T22 construct: purchased Eurofins DiscoverX (KINOMEscan scanEDGE 97)
Protocol: as §1, §2, §3, §4

MAP3K4 = target: T23, MAP3K4 (Homo sapiens, UniProt Q9Y6R4); test: KINOMEscan competition binding; settings: OR0642 1 µM; read-out: %Control
T23 construct: purchased Eurofins DiscoverX (KINOMEscan scanEDGE 97)
Protocol: as §1, §2, §3, §4

CHEK1 = target: T24, CHEK1 (Homo sapiens, UniProt O14757); test: KINOMEscan competition binding; settings: OR0642 1 µM; read-out: %Control
T24 construct: purchased Eurofins DiscoverX (KINOMEscan scanEDGE 97)
Protocol: as §1, §2, §3, §4

JNK2 = target: T25, JNK2 (Homo sapiens, UniProt P45984); test: KINOMEscan competition binding; settings: OR0642 1 µM; read-out: %Control
T25 construct: purchased Eurofins DiscoverX (KINOMEscan scanEDGE 97)
Protocol: as §1, §2, §3, §4

PDX UPNT730 = test: Ex vivo testing on PDX samples (viability, flow cytometry, 72 h), with or without OP9-DL1 monolayer; type: cell-based, human; settings: for viability at 12 µM / viability at 37 µM / viability at 111 µM / viability at 333 µM / viability at 1000 µM / viability at 3000 µM: Homo sapiens, read-out: Cell viability, Mean (% viab); for viability at 12 µM: dT 12 µM; for viability at 37 µM: dT 37 µM; for viability at 111 µM: dT 111 µM; for viability at 333 µM: dT 333 µM; for viability at 1000 µM: dT 1000 µM; for viability at 3000 µM: dT 3000 µM
Source text: Bone marrow-infiltrating blasts from terminally mice bearing PDX as stated above were collected as established before. Extensive analysis (immunophenotype and molecular analysis) of matched primary and PDX samples used in the study are shown in Supplementary Table 7, showing that they remain stable. Briefly, after euthanasia, bone marrows from tibiae, hips, femurs, and vertebrae were isolated and blasts collected for subsequent ex vivo experiments. All samples used contained ≥90% blasts as determined by flow cytometry. For the cytotoxic evaluation of OR0642, blasts were then stained with CellTraceTM Violet (CTV, Thermo Fisher Scientific, C34557) prior seeding at 10,000 cells into 96-well plates under normal conditions or pre-plated with OP9-DL1 cells. Cells were cultured in RPMI 1640 supplemented with 20% fetal bovine serum, 50 µg/ml streptomycin, 50 UI penicillin, 4 mM L-glutamine, and a cocktail of human cytokines as previously established (50 ng/ml human stem cell factor, 20 ng/ml hFLT3-L, 10 ng/ml hIL-7 and 20 nM insulin (Miltenyi Biotec))[28]. […] Rescue by dC supplementation (1 µM) was also evaluated. OR0642 was then tested alone, or combined with dT or dT + dC at two concentrations (0.25 and 0.5 µM). Cell viability was evaluated by flow cytometry 72 h post-treatment. Proliferation indexes were calculated using the detection of CTV in the control replicates (DMSO) and the proliferation modeling tool of FlowJo™ Software 10.7.1 (BD Life Sciences). A control peak of undivided CTV-stained cells was systematically used to set the undivided fraction.

## CCCN(c1nc(-c2nc(N)cc(N)n2)cs1)c1cc(-c2ccc(S(=O)(=O)N3CCN(C)CC3)cc2C(F)(F)F)ccc1C [OR0642]
FAK
  remaining binding at 1 µM: 100%
IKK-beta
  remaining binding at 1 µM: 90%
MKNK2
  remaining binding at 1 µM: 79%
ERBB4
  remaining binding at 1 µM: 100%
ERK1
  remaining binding at 1 µM: 86%
PIM1
  remaining binding at 1 µM: 100%
MEK2
  remaining binding at 1 µM: 96%
CSNK1G2
  remaining binding at 1 µM: 91%
CSF1R
  remaining binding at 1 µM: 100%
KIT
  remaining binding at 1 µM: 91%
ERBB2
  remaining binding at 1 µM: 100%
BRAF(V600E)
  remaining binding at 1 µM: 98%
CDK11
  remaining binding at 1 µM: 100%
ADCK3
  remaining binding at 1 µM: 95%
PDPK1
  remaining binding at 1 µM: 98%
PIK3CG
  remaining binding at 1 µM: 100%
CSNK1D
  remaining binding at 1 µM: 100%
JNK3
  remaining binding at 1 µM: 81%
ALK
  remaining binding at 1 µM: 80%
EGFR(L858R)
  remaining binding at 1 µM: 72%
CDK7
  remaining binding at 1 µM: 94%
AKT1
  remaining binding at 1 µM: 91%
MAP3K4
  remaining binding at 1 µM: 97%
CHEK1
  remaining binding at 1 µM: 91%
JNK2
  remaining binding at 1 µM: 84%

## Cc1cn([C@H]2C[C@H](O)[C@@H](CO)O2)c(=O)[nH]c1=O [dT, thymidine]
PDX UPNT730; UPNT730 + OP9-DL1
  viability at 12 µM: 100%
  viability at 37 µM: 96.3%
  viability at 111 µM: 86.4%
  viability at 333 µM: 82%
  viability at 1000 µM: 72.2%
  viability at 3000 µM: 72.9%
PDX UPNT730; UPNT730
  viability at 12 µM: 100%
  viability at 37 µM: 106%
  viability at 111 µM: 107%
  viability at 333 µM: 109%
  viability at 1000 µM: 102%
  viability at 3000 µM: 105%
PDX UPNT730; PDX 730, dT 100 µM
  Response at dT100 µM: 17
PDX UPNT730; proliferative conditions (OP9-DL1 monolayer)
  sensitivity: sensitive
